Experimental data taken from a melting point compilation (Tetko et al.; mined from patent text by program, amines drawn as free bases though some values may be those of a salt).

Row | Compound | melting point [°C]
1 | CC(=O)OCC1OC(n2cc(Cc3ccc(C4CC4)cc3)c3c(F)cccc32)C(OC(C)=O)C(OC(C)=O)C1OC(C)=O (stereo not drawn) | 190 to 192
2 | Cc1cc(C)c(CC(=O)NNC(=O)OC(C)(C)C)c(C)c1 | 138 to 140
3 | C=CCN(CC=C)c1cc(CCl)nc(N)n1 | 53 to 55
4 | O=C(NC(Cc1ccc(OCc2ccccc2)cc1)C(=O)O)c1cn2c(-c3ccc(Cl)cc3)cccc2n1 (stereo not drawn) | 218
5 | Fc1cc(F)c(C(Cl)(Cl)Cl)cc1C(Cl)(Cl)Cl | 77 to 79
6 | OC(c1ccccc1)(c1ccccc1)c1ccncc1 | 238 to 240
7 | Cc1ccc(S(=O)(=O)NCc2nc(C(C)C)c(Sc3cc(Cl)cc(Cl)c3)n2C)cc1 | 85 to 87
8 | CCN(CC)Cc1cnc(-c2ncn3c2CN(C)C(=O)c2cc(F)ccc2-3)o1 | 182 to 184
9 | COc1ccc(-c2cnc3c(-c4ccccc4)nc(-c4cccc(OC)c4)nc3c2)cc1 | 131 to 132
10 | CCCn1nc(C2CC2)c(C(=O)OCC)c1Cc1ccc(-c2ccccc2-c2nnn[nH]2)cc1 | 148 to 149
11 | CCCCCCCCCCCCCCCCCCOc1coc(CO)cc1=O | 71 to 73
12 | ClC(=NNc1c(Cl)cc(Cl)cc1Cl)c1ccccc1 | 93 to 94.5
13 | Cc1nc(N)c2nc(C)n(CCOC/C=C/c3ccccc3)c2c1C | 144 to 145
14 | CSc1ncc2c(n1)C(C)CNN(C)C2=O (stereo not drawn) | 153 to 155
15 | Nc1ccc(CC(NC(=O)CCCCCCCCCCCNC(=O)C(c2ccccc2)c2ccccc2)c2ccccc2)cc1 (stereo not drawn) | 107 to 114
16 | COc1ncc(C2OC(CO)C(O)C2O)c(OC)n1 (stereo not drawn) | 138 to 139
17 | CC1(C)C(=O)ON(Cc2cc(Cl)ccc2Cl)C1=O | 78 to 80
18 | Cc1cn([C@H]2C=C[C@@H](O)C2)c(=O)nc1-n1cncn1 (racemic) | 143 to 146
19 | CCP(=O)(CC)Cc1ccc(NC(=O)C2=Cc3cc(-c4ccc(C)cc4)ccc3OCC2)cc1 | 240 to 241
20 | Cc1ccc2c(c1)C=Cc1cc(C)c(C)cc1C2c1cn(Cc2ccc(C(=O)O)o2)c(=O)[nH]c1=S (stereo not drawn) | 292
21 | CCOC(=O)C1=C(COCc2cc(=O)[nH]c(N)n2)NC(C)=C(C(=O)OC)C1c1cccc(Cl)c1Cl (stereo not drawn) | 222 to 225
22 | N#CCc1c[nH]c2cccc(Cl)c12 | 134 to 136
23 | CC(=O)OC1CSC(OC(=N)C(Cl)(Cl)Cl)C(OC(C)=O)C1OC(C)=O (stereo not drawn) | 110
24 | COc1ccc2c3c1OC1CC(O)C=CC31CCN(C(=O)Nc1ccccc1)C2 (stereo not drawn) | 198 to 199
25 | CCCCCCCCCCCCCCCCOC(=O)CCCCCCCCCCCCC | 54 to 56

Row | Compound | melting point [°C]
26 | CNC(=S)NCCCCc1nc[nH]c1Br | 153 to 155
27 | COCc1c(C(=O)O)ncc2[nH]c3c(c12)CCCC3 | > 260
28 | COc1ccnc(CCc2nc3cc(-c4ccc(S(=O)(=O)N5CCC6(CC5)OCCO6)cc4)cnc3[nH]2)c1 | 121 to 122
29 | Cc1noc(NS(=O)(=O)c2ccccc2-c2ccc(-c3ncco3)cc2Cn2ccc(-c3ccccc3)n2)c1C | 164 to 168
30 | Nc1nc2ccccc2c2c1nc(CCO)n2CCCNC(=O)c1cc2ccccc2cn1 | 245 to 246
31 | CCOc1ccccc1-c1ccc2cnc(Nc3ccc(N4CCN(C)CC4)cc3)nn12 | 164 to 165
32 | CC(=O)N1CCN(Cc2cc(C)c(O)c(C)c2)CC1 | 150 to 151
33 | O=c1c2cc(Cl)cc(Br)c2ncn1CCCN1CC=C(c2c[nH]c3ccccc23)CC1 | 192
34 | C#CC1N(C(=O)Oc2ccccc2)c2ccc(OCc3ccccc3[N+](=O)[O-])cc2C23OC12CCCC3=O (stereo not drawn) | 128 to 130
35 | CCc1cc(OCc2ccc(-c3ccccc3-c3nnnn3-c3ccc(C#N)cc3)cc2)c2ccccc2n1 | 165 to 166
36 | COc1cc(COc2nn(-c3ccccc3)cc2/C=C/c2ccccn2)ccc1OCc1nc(-c2ccco2)oc1C | 135 to 136
37 | C#CCOCc1c(C)nc2c(OCc3ccccc3C)cccn12 | 87 to 89
38 | CN1C(=O)C(C)(CCN2CCN(c3cccc4ccccc34)CC2)c2cc(F)ccc21 (stereo not drawn) | 144 to 146
39 | COc1cc(CCCN2CCc3cc(OC)c(OC)cc3C2)ccc1NC(=O)c1cccc2c(=O)c3cccc(C)c3[nH]c12 | 174
40 | CC[C@H](C)[C@@H](CO)NC(=O)C[C@H](O)[C@H](CC(C)C)NC(=O)[C@H](CC(C)C)NC(=O)[C@H](Cc1cccc2ccccc12)NC(=O)OCc1ccccc1 | 206 to 212
41 | CCOCC(=O)c1cc(C(C)(C)C)c(O)c(C(C)(C)C)c1 | 73 to 75
42 | CC(C)(C)OC(=O)NCCCn1c2c(c3ccc(NC(=O)CC(=O)O)cc3c1=O)C(=O)c1ccccc1-2 | 211 to 212
43 | CCCCNC(=O)N(N)CCCC | 34 to 36
44 | Fc1ccc(F)c(COc2cccnc2NC(=S)Nc2ccc(Cl)cc2)c1F | 174 to 176
45 | CC(C)(CCCCCCCC(=O)CCCCCCCC(C)(C)C(=O)O)C(=O)O | 74 to 77
46 | C#CCN1C(=O)COc2cc(F)ccc21 | 98 to 100
47 | Cc1nc(C#Cc2cncc(CO)c2)cs1 | 98 to 99
48 | COc1ccc(-n2c(-c3sc(Nc4ccccc4)nc3-c3ccccc3)nc3ccccc3c2=O)cc1 | 135 to 137
49 | O=C1c2c(Cl)cccc2-n2cncc2[C@@H]2CCN12 | 207 to 208
50 | Cc1c(N2C[C@@H](N)C(C)(C)C2)c(F)c(N)c2c(=O)c(C(=O)O)cn(C3CC3)c12 | 192 to 193

The next lines start with the values.

Row | melting point [°C] | Compound
51 | 132 to 134 | CCOC(=O)CN1C(=O)c2cccc3c(Sc4ccccc4)ccc(c23)C1=O
52 | 228 to 229 | FC(F)(F)c1cc(-n2cc(/C=C/c3nnn[nH]3)c(-c3cccc(Cl)c3)n2)cc(C(F)(F)F)c1
53 | 204 | CN(C(=O)CN(C(=O)CNC(=O)Nc1cccc(C#N)c1)c1ccccc1)c1ccccc1
54 | 59 to 61 | CCOC(=O)c1ccc(/C=C(\C)C=O)c(OC)c1
55 | 114 to 115 | CC(C)N1CCN(c2cccc(N)c2)C(=O)C1
56 | 75 to 76 | COc1ccc(CC(=O)NC(=NOCC2CC2)c2c(F)cccc2C(F)(F)F)cc1
57 | 187 to 190 | CN(CCN1CCC[C@@H](C(=O)O)C1)C1c2ccccc2CCc2ccccc21
58 | 122 to 124 | COCCOc1ccc(COC(=O)NS(=O)(=O)CCC(C)C)c(Oc2ncc(C(F)(F)F)cc2Cl)c1
59 | 194 | CC(=O)Nc1ccc(NC(=NC#N)Oc2ccccc2)cn1
60 | 53 to 54 | Cn1cc(C(=O)F)c(C(F)F)c1
61 | 148 | O=C(O)c1cccnc1NCc1ccccc1
62 | 155 to 164 | Cc1cc(O)c2cccc(OCc3ccccc3)c2n1
63 | 133 to 135 | CC(c1ccc(C(F)(F)F)cc1)N(O)C(N)=O (stereo not drawn)
64 | 252 to 254 | CNC(=O)c1cn(C)c(=O)cc1Nc1ccc(I)cc1F
65 | 151 to 153 | O=S(=O)(Nc1ccccc1/C=C/c1ccncc1)c1ccc(OC(F)(F)F)cc1
66 | 262 | Fc1cc(-c2cc(C(F)(F)F)n3ncc(-c4ccncc4)c3n2)ccc1C(F)(F)F
67 | 200 | CCOC(=O)c1c(=O)c2cc(F)c(F)cc2n2ccccc12
68 | 60 to 62 | c1ccc2c(c1)NCS2
69 | 75 to 77 | CC1(C)Cc2cc(S(=O)(=O)Cl)ccc2O1
70 | 181 to 182 | CCCCN(Cc1ccc(-c2ccccc2C(=N)NO)cc1)c1ncccc1C(=O)OCC
71 | 225 to 226 | Cc1cccc(C(=O)c2[nH]c3ccc(Cl)cc3c2CC(=O)O)n1
72 | 52 | COc1ccc(CCS(=O)(=O)CC2CCC2)cc1
73 | 178 to 180 | COC(=O)CN1CC(N2C(=O)c3ccccc3C2=O)C1=O (stereo not drawn)
74 | 78 to 79 | COCc1ccc2cccnc2c1Cl

Row | melting point [°C] | Compound
75 | 221 to 222 | CCN1C(=O)C(C)Oc2ccc(-n3c(=O)cc(C(F)(F)F)n(C)c3=O)cc21 (stereo not drawn)
76 | 206 to 208 | Cc1nc(NC(=O)c2ccccc2)sc1C(=O)NCc1ccc(F)cc1
77 | 156 to 157 | COc1cccc2c1CC(NC(C)=O)CC2 (stereo not drawn)
78 | 100 to 103 | COc1cccc(CCC(c2ccccc2)C(O)c2ccc(O)cc2)c1 (stereo not drawn)
79 | 179 to 183 | COc1ccccc1[C@@H]1O[C@@H](CC(=O)O)C(=O)N(CC(C)(C)C)c2ccc(Cl)cc21
80 | 217 to 219 | O=C(NC(=O)c1cccs1)NC1CCNC(Cc2ccc3ccccc3c2)C1 (stereo not drawn)
81 | 213 to 214 | CC(O)=C(C#N)C(=O)Nc1cccc(S(C)(=O)=O)c1
82 | 64 to 66 | Fc1ccc(COc2ncc(F)c(NCOCc3ccccc3)n2)cc1
83 | 148 to 149 | CC1(C)NC(=O)N(c2ccc(Cl)c(C(F)(F)F)c2)C1=N
84 | 120 to 123 | O=C(NC(=O)C(c1ccccc1)c1ccccc1)OC1CCCC1
85 | 177 to 178 | CC(C)c1cccc(C(C)C)c1-n1nn[nH]c1=O
86 | 11 | CC(C)(C)[N+]([O-])=Cc1ccc(OCc2ccccc2)cc1
87 | 158 to 161 | COC(=O)C=Cc1ccc(-c2ccc(C=CC(=O)OC)cc2C(F)(F)F)c(C(F)(F)F)c1
88 | > 200 | O=C1c2ccccc2C(=O)c2c(NC(=O)C3CC3)ccc(NC(=O)C3CC3)c21
89 | 166 to 168 | CC(C)c1ccc(C(=O)[C@@H]2C[C@H]2c2ccccc2)c(C(C)C)c1OS(N)(=O)=O (relative stereo)
90 | 92 | Cc1ccc(C(=O)c2ccc3[nH]cc(C4CCN(C)CC4)c3c2)cc1
91 | 169 to 170 | O=C(O)c1cc(F)cc(-c2ccc(F)c3cc(Cc4cccc(C(F)(F)F)c4)sc23)c1
92 | 114 to 116 | CCCC(=O)c1cnc2ccsc2c1Nc1ccccc1C
93 | 139 to 141 | O=C(C=Cc1ccccc1)SC(Cn1ccnc1)c1ccc(Cl)cc1Cl (stereo not drawn)
94 | 192 | Nc1cc(O)c(C(=O)O)cc1Cl
95 | 229 | CCCn1nc(CC)c(C(=O)O)c1Cc1ccc(-c2ccccc2-c2nnn[nH]2)cc1
96 | 204 to 205 | O=C1C(C2=NCCS2)c2ccccc2N1C1=NCCS1 (stereo not drawn)
97 | 135 to 136 | Cc1ccc(-c2nc3ncccc3o2)cc1
98 | 92 | CCCCCCCCC(=O)OCc1c(Cl)ccc2cc(Cl)cnc12
